Data set [1] is described as follows: Cytotoxicity against human 293T cells expressing Gluc assessed as inhibition of cell proliferation at 20 uM after 24 hrs by CCK8 assay relative to control. Particulars: 293T (HEK-293T) cells expressing Gluc. Format: cell-based. For orientation: Formazan colour is commonly taken as a measure of viable cells.
The nature of data set [2]: Cytotoxicity against human 293T cells expressing Gluc assessed as inhibition of cell proliferation after 24 hrs by CCK8 assay. Format: cell-based. The following applies: 293T (HEK-293T) cells expressing Gluc.
A short description of a further data set: cells. Particulars: Influenza A virus, HEK-293T.
A further data set in a line: in vitro. The following applies: human, 293T cells expressing Gluc.

From ChEMBL document CHEMBL4007499, “Anti-influenza triterpenoid saponins (saikosaponins) from the roots of Bupleurum marginatum var. stenophyllum” (Bioorg Med Chem Lett, 2017) come the findings set out here.

Description for cells: Antiviral activity against Influenza virus A/WSN/33(H1N1) infected in human 293T cells assessed as inhibition of viral replication preincubated for 2 hrs followed by viral infection measured after 24 hrs by luciferase reporter gene assay
Description for in vitro: Selectivity index, ratio of CC50 for human 293T cells expressing Gluc to EC50 for Influenza A virus WSN/33(H1N1)

A word on the inhibition: it is the drop in the measured response relative to a control, in per cent. In general, CC50 refers to the concentration giving 50% cytotoxicity. In general, EC50 refers to the concentration giving half of the maximal effect. Consider `C[C@H]1O[C@@H](O[C@H]2CC[C@]3(C)C4=CC=C5[C@@H]6CC(C)(C)CC[C@]6(CO)[C@@H](O)C[C@@]5(C)[C@]4(C)CC[C@H]3[C@]2(C)CO)[C@H](O)[C@@H](O[C@@H]2O[C@H](CO)[C@@H](O)[C@H](O)[C@H]2O)[C@H]1O`, for which the inhibition at 24 h, 20 µM in data set [1] is 1.39%. Moreover, the CC50 at 24 h in data set [2] is 18.9 µM. Moreover, in the data set “cells”, the EC50 came out at 15.8 µM. For the same molecule, in the data set “in vitro”, the selectivity ratio worked out at 1.19.

As for `C[C@@H]1O[C@@H](O[C@H]2[C@H](O)[C@@H](O)[C@H](O[C@H]3CC[C@]4(C)[C@H]5C=CC6=C7CC(C)(C)CC[C@]7(CO)[C@@H](O)[C@H](O)[C@@]6(C)[C@]5(C)CC[C@H]4C3(C)C)O[C@@H]2CO[C@@H]2O[C@H](CO)[C@@H](O)[C@H](O)[C@H]2O)[C@H](O)[C@H](O)[C@H]1O`, the inhibition at 24 h, 20 µM in data set [1] was found to be 5.14%. Besides, in data set [2], the half-maximal cytotoxic concentration (CC50) at 24 h was greater than 200 µM. In the data set “cells”, this molecule came in with an EC50 of 10.1 µM. For the same molecule, the selectivity ratio in the data set “in vitro” was greater than 19.8.

Consider `CO[C@@H]1C=C2[C@@H]3CC(C)(C)CCC3=C(O)C(=O)[C@@]2(C)[C@]2(C)CC[C@H]3[C@](C)(CO)[C@@H](O[C@@H]4O[C@H](C)[C@H](O)[C@H](O[C@@H]5O[C@H](CO)[C@@H](O)[C@H](O)[C@H]5O)[C@H]4O)CC[C@]3(C)[C@@H]12`, for which the inhibition at 24 h, 20 µM in data set [1] amounted to 0%.

As to `C[C@H]1O[C@@H](O[C@H]2CC[C@@]3(C)[C@@H](CC[C@]4(C)[C@@H]3C=CC3=C5CC(C)(C)CC[C@]5(CO)[C@@H](O)C[C@]34C)[C@]2(C)CO)[C@H](O)[C@@H](O)[C@H]1O`, in data set [1], the inhibition at 24 h, 20 µM was determined as 0%. Also, the CC50 at 24 h in data set [2] was determined as 24.5 µM. Moreover, in “cells”, it took 8.48 µM to reach a half-maximal effect (EC50). Also, in the data set “in vitro”, the selectivity ratio was found to be 2.89.

Regarding `C[C@@H]1O[C@@H](O[C@H]2[C@H](O)[C@@H](O)[C@H](O[C@H]3CC[C@@]4(C)[C@@H](CC[C@]5(C)[C@@H]4C=CC4=C6CC(C)(C)CC[C@]6(CO)[C@@H](O)[C@H](O)[C@]45C)[C@]3(C)CO)O[C@@H]2CO[C@@H]2O[C@H](CO)[C@@H](O)[C@H](O)[C@H]2O)[C@H](O)[C@H](O)[C@H]1O`, the inhibition at 24 h, 20 µM in data set [1] came out at 0%. Also, in data set [2], the CC50 at 24 h was greater than 200 µM. In addition, the EC50 in the data set “cells” was found to be 7.67 µM. For the same molecule, the selectivity ratio in “in vitro” was greater than 26.1.

Consider `C[C@H]1O[C@@H](O[C@H]2CC[C@@]3(C)[C@@H](CC[C@]4(C)[C@@H]3C=C[C@]35OC[C@@]6(CCC(C)(C)C[C@H]63)C(=O)C[C@]54C)[C@]2(C)CO)[C@H](O)[C@@H](O[C@@H]2O[C@H](CO)[C@@H](O)[C@H](O)[C@H]2O)[C@H]1O`, for which the inhibition at 24 h, 20 µM in data set [1] stood at 49.7%. Also, the CC50 at 24 h in data set [2] came to 3.8 µM. The molecule also came in with an EC50 in the data set “cells” of 2.66 µM. In addition, the selectivity ratio in “in vitro” is 1.43.

For the molecule `C[C@@H]1O[C@@H](O[C@H]2[C@H](O)[C@@H](O)[C@H](O[C@H]3CC[C@@]4(C)[C@@H](CC[C@]5(C)[C@@H]4CC=C4[C@@H]6CC(C)(C)CC[C@]6(CO)[C@@H](O)C[C@]45C)[C@]3(C)CO)O[C@@H]2CO[C@@H]2O[C@H](CO)[C@@H](O)[C@H](O)[C@H]2O)[C@H](O)[C@H](O)[C@H]1O`, the inhibition at 24 h, 20 µM in data set [1] was 0%. Besides, the CC50 at 24 h in data set [2] is greater than 200 µM. This molecule yielded an EC50 in the data set “cells” of 17.9 µM. In addition, the selectivity ratio in the data set “in vitro” is greater than 11.2.

Consider `C[C@H]1O[C@@H](O[C@H]2CC[C@@]3(C)[C@@H](CC[C@]4(C)[C@@H]3C=CC3=C5CC(C)(C)CC[C@]5(CO)C(=O)[C@H](O)[C@]34C)[C@]2(C)CO)[C@H](O)[C@@H](O[C@@H]2O[C@H](CO)[C@@H](O)[C@H](O)[C@H]2O)[C@H]1O`, for which, in data set [1], the inhibition at 24 h, 20 µM was found to be 0%.

As for `C[C@H]1O[C@@H](O[C@H]2CC[C@@]3(C)[C@@H](CC[C@]4(C)[C@@H]3C=CC3=C5CC(C)(C)CC[C@]5(CO)C(=O)C[C@]34C)[C@]2(C)CO)[C@H](O)[C@@H](O[C@@H]2O[C@H](CO)[C@@H](O)[C@H](O)[C@H]2O)[C@H]1O`, the inhibition at 24 h, 20 µM in data set [1] is 9%.

Take `CO[C@@H]1C=C2[C@@H]3CC(C)(C)CC[C@]3(CO)[C@@H](O)C[C@@]2(C)[C@]2(C)CC[C@H]3C(C)(C)[C@@H](O[C@@H]4O[C@H](CO[C@@H]5O[C@H](CO)[C@@H](O)[C@H](O)[C@H]5O)[C@@H](O[C@@H]5O[C@@H](C)[C@H](O)[C@@H](O)[C@H]5O)[C@H](O)[C@H]4O)CC[C@]3(C)[C@@H]12`: in data set [1], the inhibition at 24 h, 20 µM worked out at 0%.

For the molecule `C[C@H]1O[C@@H](O[C@H]2CC[C@@]3(C)[C@@H](CC[C@]4(C)[C@@H]3C=CC3=C5C[C@@](C)(CO)CC[C@]5(CO)[C@@H](O)C[C@]34C)[C@]2(C)CO)[C@H](O)[C@@H](O[C@@H]2O[C@H](CO)[C@@H](O)[C@H](O)[C@H]2O)[C@H]1O`, in data set [1], the inhibition at 24 h, 20 µM amounted to 5.87%.

`C[C@H]1O[C@@H](O[C@H]2CC[C@]3(C)[C@H]4C=C[C@]56OC[C@@]7(CCC(C)(C)C[C@H]75)[C@@H](O)C[C@@]6(C)[C@]4(C)CC[C@H]3C2(C)C)[C@H](O)[C@@H](O[C@@H]2O[C@H](CO)[C@@H](O)[C@H](O)[C@H]2O)[C@H]1O`: in data set [1], the inhibition at 24 h, 20 µM is 44.8%. For the same molecule, the cytotoxic concentration (CC50) at 24 h in data set [2] turned out to be 2.85 µM. In the data set “cells”, this molecule came in with an EC50 of 2.14 µM. Also, the selectivity ratio in the data set “in vitro” came to 1.33.

`C/C=C/C(=O)OC[C@H]1O[C@@H](O[C@H]2[C@@H](O)[C@@H](C)O[C@@H](O[C@H]3CC[C@@]4(C)[C@@H](CC[C@]5(C)[C@@H]4C=C[C@]46OC[C@@]7(CCC(C)(C)C[C@H]74)[C@@H](O)C[C@]65C)[C@]3(C)CO)[C@@H]2O)[C@H](O)[C@@H](O)[C@@H]1O`: the inhibition at 24 h, 20 µM in data set [1] came out at 44.2%. Moreover, the CC50 at 24 h in data set [2] turned out to be 7.02 µM. This molecule displayed an EC50 in the data set “cells” of 8.92 µM. In addition, in “in vitro”, the selectivity ratio stood at 0.79.

For the molecule `C[C@H]1O[C@@H](O[C@H]2CC[C@]3(C)C4=CC=C5[C@@H]6CC(C)(C)CC[C@]6(CO)[C@H](O)C[C@@]5(C)[C@]4(C)CC[C@H]3[C@]2(C)CO)[C@H](O)[C@@H](O[C@@H]2O[C@H](CO)[C@@H](O)[C@H](O)[C@H]2O)[C@H]1O`, in data set [1], the inhibition at 24 h, 20 µM turned out to be 1.39%. In addition, the 50% cytotoxic concentration (CC50) at 24 h in data set [2] came out at 38.2 µM. For the same molecule, the EC50 in “cells” amounted to 21.8 µM. The selectivity ratio in the data set “in vitro” came out at 1.75.

As for `NC(=O)c1ncn([C@@H]2O[C@H](CO)[C@@H](O)[C@H]2O)n1` [RIBAVIRIN], the inhibition at 24 h, 20 µM in data set [1] amounted to 0%. The 50% cytotoxic concentration (CC50) at 24 h in data set [2] is greater than 205 µM. For the same molecule, in the data set “cells”, the EC50 turned out to be 17.9 µM. In addition, the selectivity ratio in “in vitro” was greater than 11.4.
